Test results from US9469650B2, “Melampomagnolide B derivatives” (BOARD OF TRUSTEES OF THE UNIVERSITY OF ARKANSAS, priority 2013, dated 2016).

What was measured:
[1] = test system: SF-268; assay: panel of 60 human tumor cell lines, growth inhibition (CNS Cancer)
[2] = test system: T-47D; assay: panel of 60 human tumor cell lines, growth inhibition (Breast Cancer); conditions: for Percent Growth: T-47D
[3] = test system: ACHN; assay: panel of 60 human tumor cell lines, growth inhibition (Renal Cancer)
[4] = test system: UO-31; assay: as above
[5] = test system: HCT-116; assay: panel of 60 human tumor cell lines, growth inhibition (Colon Cancer); conditions: for Percent Growth: HCT-116; for GI50: HCT-116, HCT-116
[6] = test system: COLO 205; assay: as above
[7] = test system: SW-620; assay: as above; conditions: for GI50: SW-620, SW-620; for Percent Growth: SW-620
[8] = test system: BT-549; assay: panel of 60 human tumor cell lines, growth inhibition (Breast Cancer)
[9] = test system: SF-539; assay: panel of 60 human tumor cell lines, growth inhibition (CNS Cancer)
[10] = test system: OVCAR-5; assay: panel of 60 human tumor cell lines, growth inhibition (Ovarian Cancer)
[11] = test system: NCI/ADR-RES; assay: as above
[12] = test system: 786-0; assay: panel of 60 human tumor cell lines, growth inhibition (Renal Cancer)
[13] = test system: MDA-MB-435; assay: panel of 60 human tumor cell lines, growth inhibition (Melanoma)
[14] = test system: OVCAR-8; assay: panel of 60 human tumor cell lines, growth inhibition (Ovarian Cancer)
[15] = test system: NCI-H522; assay: panel of 60 human tumor cell lines, growth inhibition (Non-Small Cell Lung Cancer)
[16] = test system: IGROV1; assay: panel of 60 human tumor cell lines, growth inhibition (Ovarian Cancer); conditions: for Percent Growth: IGROVI
[17] = test system: HS 578T; assay: panel of 60 human tumor cell lines, growth inhibition (Breast Cancer); conditions: for Percent Growth: HS 578T

C=C1C(=O)O[C@H]2[C@H]1CC/C(COC(=O)NCCc1ccccn1)=C\CC[C@@]1(C)O[C@@H]21 [JVM 61, ((1aR,7aS,10aS,10bS,E)-1a-methyl-8-methylene-9-oxo-1a,2,3,6,7,7a,8,9,10a,10b-decahydrooxireno[2′,3′:9,10]cyclodeca[1,2-b]furan-5-yl)methyl-(2-(pyridin-2-yl)ethyl)carbamate]
GI50 ([1]; Homo sapiens, SF-268): 16.2 µM
CC50 ([1]; Homo sapiens, SF-268, read-out: LC50): 71.7 µM
IC (TGI) ([1]; Homo sapiens, SF-268, read-out: TGI): 34 µM
Percent Growth ([1]; SF-268, Log10 Concentration −4.0): −72%
Percent Growth ([1]; SF-268, Log10 Concentration −5.0): 82%
Percent Growth ([1]; SF-268, Log10 Concentration −6.0): 102%
Percent Growth ([1]; SF-268, Log10 Concentration −7.0): 109%
Percent Growth ([1]; SF-268, Log10 Concentration −8.0): 106%
GI50 ([2]; Homo sapiens, T47D): 6.19 µM
CC50 ([2]; Homo sapiens, T47D, read-out: LC50): > 100 µM
IC (TGI) ([2]; Homo sapiens, T47D, read-out: TGI): 25 µM
Percent Growth ([2]; Log10 Concentration −4.0): −43%
Percent Growth ([2]; Log10 Concentration −5.0): 35%
Percent Growth ([2]; Log10 Concentration −6.0): 106%
Percent Growth ([2]; Log10 Concentration −7.0): 104%
Percent Growth ([2]; Log10 Concentration −8.0): 98%
GI50 ([3]; Homo sapiens): 2750 nM
CC50 ([3]; Homo sapiens, read-out: LC50): 34.5 µM
IC (TGI) ([3]; Homo sapiens, read-out: TGI): 11.3 µM
Percent Growth ([3]; Log10 Concentration −4.0): −98%
Percent Growth ([3]; Log10 Concentration −5.0): 5%
Percent Growth ([3]; Log10 Concentration −6.0): 85%
Percent Growth ([3]; Log10 Concentration −7.0): 97%
Percent Growth ([3]; Log10 Concentration −8.0): 102%
GI50 ([4]; Homo sapiens, UO-31): 6.38 µM
CC50 ([4]; Homo sapiens, UO-31, read-out: LC50): 51.3 µM
IC (TGI) ([4]; Homo sapiens, UO-31, read-out: TGI): 20.8 µM
Percent Growth ([4]; UO-31, Log10 Concentration −4.0): −87%
Percent Growth ([4]; UO-31, Log10 Concentration −5.0): 40%
Percent Growth ([4]; UO-31, Log10 Concentration −6.0): 89%
Percent Growth ([4]; UO-31, Log10 Concentration −7.0): 93%
Percent Growth ([4]; UO-31, Log10 Concentration −8.0): 93%
Percent Growth ([5]; Log10 Concentration −4.0): −99%
Percent Growth ([5]; Log10 Concentration −5.0): −33%
Percent Growth ([5]; Log10 Concentration −6.0): 82%
Percent Growth ([5]; Log10 Concentration −7.0): 102%
Percent Growth ([5]; Log10 Concentration −8.0): 99%
GI50 ([5]; Homo sapiens): 1590 nM
GI50 ([5]; Homo sapiens, 5-dose assay): 1890 nM
CC50 ([5]; Homo sapiens, HCT-116, read-out: LC50): 17.9 µM
IC (TGI) ([5]; Homo sapiens, HCT-116, read-out: TGI): 5.12 µM
Percent Growth ([6]; COLO 205, Log10 Concentration −4.0): −79%
Percent Growth ([6]; COLO 205, Log10 Concentration −5.0): 3%
Percent Growth ([6]; COLO 205, Log10 Concentration −6.0): 107%
Percent Growth ([6]; COLO 205, Log10 Concentration −7.0): 108%
Percent Growth ([6]; COLO 205, Log10 Concentration −8.0): 104%
GI50 ([6]; Homo sapiens, COLO 205): 3.54 µM
CC50 ([6]; Homo sapiens, COLO 205, read-out: LC50): 44.6 µM
IC (TGI) ([6]; Homo sapiens, COLO 205, read-out: TGI): 11 µM
GI50 ([7]; Homo sapiens): 3.13 µM
GI50 ([7]; Homo sapiens, 5-dose assay): 3.13 µM
CC50 ([7]; Homo sapiens, SW-620, read-out: LC50): 54.5 µM
IC (TGI) ([7]; Homo sapiens, SW-620, read-out: TGI): 12.3 µM
Percent Growth ([7]; Log10 Concentration −4.0): −70%
Percent Growth ([7]; Log10 Concentration −5.0): 7%
Percent Growth ([7]; Log10 Concentration −6.0): 92%
Percent Growth ([7]; Log10 Concentration −7.0): 105%
Percent Growth ([7]; Log10 Concentration −8.0): 109%
Percent Growth ([8]; BT-549, Log10 Concentration −4.0): −95%
Percent Growth ([8]; BT-549, Log10 Concentration −6.0): 85%
Percent Growth ([8]; BT-549, Log10 Concentration −7.0): 96%
Percent Growth ([8]; BT-549, Log10 Concentration −8.0): 96%
GI50 ([8]; Homo sapiens, BT-549): 2600 nM
CC50 ([8]; Homo sapiens, BT-549, read-out: LC50): 33.6 µM
IC (TGI) ([8]; Homo sapiens, BT-549, read-out: TGI): 10.1 µM
GI50 ([9]; Homo sapiens, SF-539): 5.77 µM
CC50 ([9]; Homo sapiens, SF-539, read-out: LC50): 43.2 µM
IC (TGI) ([9]; Homo sapiens, SF-539, read-out: TGI): 15.4 µM
Percent Growth ([9]; SF-539, Log10 Concentration −4.0): −99%
Percent Growth ([9]; SF-539, Log10 Concentration −5.0): 36%
Percent Growth ([9]; SF-539, Log10 Concentration −6.0): 96%
Percent Growth ([9]; SF-539, Log10 Concentration −7.0): 97%
Percent Growth ([9]; SF-539, Log10 Concentration −8.0): 103%
GI50 ([10]; Homo sapiens, OVCAR-5): 10.2 µM
CC50 ([10]; Homo sapiens, OVCAR-5, read-out: LC50): 49.5 µM
IC (TGI) ([10]; Homo sapiens, OVCAR-5, read-out: TGI): 22.5 µM
Percent Growth ([10]; OVCAR-5, Log10 Concentration −4.0): −94%
Percent Growth ([10]; OVCAR-5, Log10 Concentration −5.0): 51%
Percent Growth ([10]; OVCAR-5, Log10 Concentration −6.0): 96%
Percent Growth ([10]; OVCAR-5, Log10 Concentration −7.0): 97%
Percent Growth ([10]; OVCAR-5, Log10 Concentration −8.0): 107%
GI50 ([11]; Homo sapiens): 20.1 µM
CC50 ([11]; Homo sapiens, read-out: LC50): > 100 µM
IC (TGI) ([11]; Homo sapiens, read-out: TGI): 54.7 µM
Percent Growth ([11]; Log10 Concentration −4.0): −30%
Percent Growth ([11]; Log10 Concentration −5.0): 85%
Percent Growth ([11]; Log10 Concentration −6.0): 106%
Percent Growth ([11]; Log10 Concentration −7.0): 106%
Percent Growth ([11]; Log10 Concentration −8.0): 105%
Percent Growth ([12]; 786-0, Log10 Concentration −4.0): −93%
Percent Growth ([12]; 786-0, Log10 Concentration −5.0): 15%
Percent Growth ([12]; 786-0, Log10 Concentration −6.0): 96%
Percent Growth ([12]; 786-0, Log10 Concentration −7.0): 101%
Percent Growth ([12]; 786-0, Log10 Concentration −8.0): 101%
GI50 ([12]; Homo sapiens, 786-0): 3.7 µM
CC50 ([12]; Homo sapiens, 786-0, read-out: LC50): 39.8 µM
IC (TGI) ([12]; Homo sapiens, 786-0, read-out: TGI): 13.8 µM
GI50 ([13]; Homo sapiens, MDA-MB-435): 6.01 µM
CC50 ([13]; Homo sapiens, MDA-MB-435, read-out: LC50): 82.4 µM
IC (TGI) ([13]; Homo sapiens, MDA-MB-435, read-out: TGI): 24.7 µM
Percent Growth ([13]; MDA-MB-435, Log10 Concentration −4.0): −58%
Percent Growth ([13]; MDA-MB-435, Log10 Concentration −5.0): 38%
Percent Growth ([13]; MDA-MB-435, Log10 Concentration −6.0): 94%
Percent Growth ([13]; MDA-MB-435, Log10 Concentration −7.0): 94%
Percent Growth ([13]; MDA-MB-435, Log10 Concentration −8.0): 97%
GI50 ([14]; Homo sapiens, OVCAR-8): 4.39 µM
CC50 ([14]; Homo sapiens, OVCAR-8, read-out: LC50): 65.1 µM
IC (TGI) ([14]; Homo sapiens, OVCAR-8, read-out: TGI): 18.5 µM
Percent Growth ([14]; OVCAR-8, Log10 Concentration −4.0): −67%
Percent Growth ([14]; OVCAR-8, Log10 Concentration −5.0): 25%
Percent Growth ([14]; OVCAR-8, Log10 Concentration −6.0): 96%
Percent Growth ([14]; OVCAR-8, Log10 Concentration −7.0): 100%
Percent Growth ([14]; OVCAR-8, Log10 Concentration −8.0): 108%
GI50 ([15]; Homo sapiens, NCI-H522): 1640 nM
CC50 ([15]; Homo sapiens, NCI-H522, read-out: LC50): 9.29 µM
IC (TGI) ([15]; Homo sapiens, NCI-H522, read-out: TGI): 3.9 µM
Percent Growth ([15]; NCI-H522, Log10 Concentration −4.0): −69%
Percent Growth ([15]; NCI-H522, Log10 Concentration −5.0): −54%
Percent Growth ([15]; NCI-H522, Log10 Concentration −6.0): 76%
Percent Growth ([15]; NCI-H522, Log10 Concentration −7.0): 96%
Percent Growth ([15]; NCI-H522, Log10 Concentration −8.0): 95%
GI50 ([16]; Homo sapiens, IGROV-1): 14.4 µM
CC50 ([16]; Homo sapiens, IGROV-1, read-out: LC50): 78.9 µM
IC (TGI) ([16]; Homo sapiens, IGROV-1, read-out: TGI): 33.8 µM
Percent Growth ([16]; Log10 Concentration −4.0): −64%
Percent Growth ([16]; Log10 Concentration −5.0): 72%
Percent Growth ([16]; Log10 Concentration −6.0): 102%
Percent Growth ([16]; Log10 Concentration −7.0): 104%
Percent Growth ([16]; Log10 Concentration −8.0): 106%
Percent Growth ([17]; Log10 Concentration −4.0): −25%
Percent Growth ([17]; Log10 Concentration −5.0): 28%
Percent Growth ([17]; Log10 Concentration −6.0): 94%
Percent Growth ([17]; Log10 Concentration −7.0): 96%
Percent Growth ([17]; Log10 Concentration −8.0): 98%
GI50 ([17]; Homo sapiens, Hs-578T): 4.66 µM
CC50 ([17]; Homo sapiens, Hs-578T, read-out: LC50): ≥ 100 µM
IC (TGI) ([17]; Homo sapiens, Hs-578T, read-out: TGI): 33.9 µM
